Results taken from patent US6342502B1, “Thieno[2,3-d]pyrimidine diones and their use in the treatment of reversible obstructive airways diseases” (AstraZeneca AB, priority 1997, dated 2002).

Compound	melting point [°C]
CC(C)Cn1c(=O)n(C)c(=O)c2c(Sc3cccc[n+]3[O-])c(Cc3cccc4ccccc34)sc21 [Example 38, 2-{[1,2,3,4-Tetrahydro-3-methyl-1-(2-methylpropyl)-6-(1-naphthalenylmethyl)-2,4-dioxothieno[2,3-d]pyrimidin-5-yl]thio}pyridine N-oxide]	228 to 229
CC(=O)NCCCSc1c(Cc2cccc3ccccc23)sc2c1c(=O)n(C)c(=O)n2CC(C)C [Example 41]	114 to 117
CC(C)Cn1c(=O)n(C)c(=O)c2c(C(=O)NCCO)c(Cc3cccc4ccccc34)sc21 [Example 16, 1,2,3,4-Tetrahydro-N-(2-hydroxyethyl)-3-methyl-1-(2-methylpropyl)-6-(1-naphthalenylmethyl)-2,4-dioxothieno[2,3-d]pyrimidine-5-carboxamide]	193 to 194
CC(C)Cn1c(=O)n(C)c(=O)c2cc(Cc3ccccc3C(N)=O)sc21 [Example 82, 2-[(1,2,3,4-tetrahydro-3-methyl-1-(2-methylpropyl)-2,4-dioxothieno[2,3-d]pyrimidin-6-yl)methyl]benzamido]	183
